According to patent US20170010280A1, “GDF15 AS BIOMARKER FOR DIAGNOSING MITOCHONDRIAL DISEASES” (TOKYO METROPOLITAN GERIATRIC HOSPITAL AND INSTITUTE OF …, priority 2014, published 2017):
Read-outs that look alike come from different tables or passages of the source.

How the values were obtained:
[1] = system: 2SA cells (control cell); settings: high concentration, non-patent document 1; cited from earlier work
[2] = system: 2SD cells; assay: quantitative RT-PCR of GDF15, INHBE and IL1A expression; format: cell-based, human; settings: 10 mM, 4 and 8 hours after treatment
Procedure: Total RNA was isolated from cells with miRNeasy-minikit (Qiagen), and reverse transcribed to cDNA with a High Capacity cDNA Reverse Transcription Kit (Life Technologies, Carlsbad, Calif., USA) used according to the manufacturer's protocols. Real-time PCR was performed on the StepOnePlus Real-Time PCR System (Life Technologies) using Power SYBR Green PCR Master Mix. 18S rRNA gene was used as an internal control for normalization. The sequences of primers are listed in Table 1(The numbers in the sequence listing, SEQ ID NO: 1 to 1 stage left, SEQ ID NO: 2 to the right sequentially subjected to SEQ ID NO: 8.).
(iv) In order to determine the expression level of GDF15, INHBE and IL1A in cells, quantitative RT-PCRs were performed. The expression level of GDF15, INHBE, and IL1A were increased at 4 and 8 hours after treatment with 10 mM lactate in 2SD cells, otherwise they were not changed after treatment with 10mM pyruvate. The expression level of GDF15 was higher in 2SD cells than in 2SA cells at 0 hour. On the results, the reproducibility of the microarray data were confirmed. GDF15, INHBE, and IL1A were identified as biomarkers for mitochondrial diseases (FIG. 2 to FIG. 4).

[3] = system: 2SD cells; assay: ELISA of GDF15 concentration in culture medium; format: cell-based, human; settings: 10 mM lactate, medium cultured 24 h
Procedure: Cells were placed on 60-mm dishes 1 day before replacing the medium with fresh medium. Conditioned medium cultured for 24 h was collected, and the particulates were removed by centrifugation (at 500×g for 10 min, at 10,000×g for 30 min). The GDF15 and INHBE concentrations in the supernatants and in the sera of patients were determined in duplicate by using a Human GDF-15 Immunoassay (DGD150, R&D Systems, Minneapolis, Minn., USA) and enzyme-linked immunosorbent assay kit for Inhibin Beta E (E90048Hu, Uscn Life Science, Wuhan, Hubei, PRC) according to the manufacturer's instructions. For measuring IL1A and other cytokine concentrations, the sera were subjected to a multiplex suspension array, Bio Plex Pro Human Cytokine Grp II Panel 21-Plex (MF0-005KMII, Bio-Rad, Hercules, Calif., USA). The cytokines measured by use of this array were the following: IL-2Rα, IL-3, IL-12 (p40), IL-16, IL-18, CTACK, GRO-α, HGF, IFN-α2, LIF, MCP-3, M-CSF, MIF, MIG, β-NGF, SCF, SCGF-β, SDF-1α, TNF-β, and TRAIL.
(v) The concentrations of three secreted proteins as candidate biomarkers in cell culture were measured by ELISA and multiplex suspension arrays. […] Other secreted proteins could not be measured under the detection limit.

[4] = system: 2SD cells; settings: 10 mM, 4 hours after treatment, non-patent document 1; cited from earlier work
[5] = system: 2SD cells (mitochondrial disease model cell); assay: exhaustive gene expression analysis (microarray) after lactate or pyruvate treatment; format: cell-based, human
Source text: (i) Cybrid cells established from myoblasts in MELAS (mitochondrial myopathy, encephalopathy, lactic acidosis, and stroke-like episodes), which is relatively high incident among mitochondrial diseases patient and human osteosarcoma 143B cells were used in the experiment. Specifically, myoblast cells from MELAS patients lacking the cell nuclei were fused with human osteosarcoma-derived 143B cells lacking mitochondrial DNA (mtDNA). From some fused cell lines, a cell line without m.3243A>G mutation in mtDNA was used as control cell (2SA) and a cell line with m.3243A>G mutation with 94% was used as mitochondrial disease model cell (2SD) (the mutation ratio is not 100%, because mitochondria is heteroplasmy). Cells were cultured in high-glucose Dulbecco's modified Eagle's medium (DMEM) supplemented with 10% FBS, 1 mM sodium pyruvate, and 0.4 mM uridine at 37° C. under a humidified atmosphere of 5% CO2. Total RNA was isolated from cells by using a miRNeasy mini kit (Qiagen, Venlo, Netherlands). One hundred nanograms of total RNA was labeled and amplified with a low input quick amp labeling kit (Agilent Technologies, Santa Clara, Calif., USA) used according to the manufacturer's instructions. The labeled cRNA was hybridized to the Agilent SurePrint G3 Human GE 8×60K Microarray in a rotating hybridization oven at 10 rpm for 20 h at 65° C. After hybridization, the microarrays were washed according to the manufacturer's instructions and scanned on an Agilent DNA Microarray Scanner with Scan Control software. The resulting images were processed, and raw data were collected by using Agilent Feature Extraction software. Expression data were analyzed by using GeneSpring GX 11 (Agilent Technologies). The signal intensity of each probe was normalized by a percentile shift, in which each value was divided by the 75th percentile of all values in its array. For pairwise comparison analysis, only the probes that had expression flags present under at least one condition were considered. The list was analyzed with Ingenuity Pathways Analysis software (Ingenuity Systems, Redwood, Calif., USA). (i) 2SA cells and 2SD cells were collected at 0, 4, and 8 hours after treatment of 10 mM lactate or 10 mM of pyruvate. After RNA were extracted from these cells, exhaustive gene expression analysis were performed using microarray analysis.

[6] = system: 2SD cells; assay: metabolome analysis of energy metabolism; format: cell-based, human; settings: 10 mM, 4 hours after treatment
Procedure: (§1) (ii) Metabolome analysis were performed using 2SA cells and 2SD cells. […] The energy metabolism disorder has become remarkable 4 hours after treatment of high concentration of lactic acid (10 mM) in 2SD cells, and the phenomenon was not observed after treatment of high concentration of pyruvic acid (10 mM). The energy metabolism disorder was not observed after treatment of high concentration of lactic acid in 2SA cells. Based on the results, we came up with the forecast that the genes expressed in 2SD cells with energy metabolism disorders in a high concentration of lactic acid may be new biomarkers that reflects the energy metabolic disorder of mitochondrial disease patients.

[7] = system: 2SA cells (control cell); assay: metabolome analysis of energy metabolism; format: cell-based, human; settings: high concentration
Procedure: as §1

[8] = system: mitochondrial disease patients; assay: sodium pyruvate therapy for mitochondrial disease patients; format: in vivo, human; settings: patients n=10, 0.3 g/kg to 2 g/kg, over seven years
Source text: 4. Study of sodium pyruvate therapy for mitochondrial disease patients For mitochondrial disease patients (n=10), sodium pyruvate (0.3 g/kg to 2 g/kg) had been administered for over seven years. During the period, the transition of
FGF-21 and GDF-15 had been determined and parameters of other therapeutic effects had been investigated. The mitochondrial disease patients contained PDH E1A deficiency, MELAS/cardiomyopathy with A3243G mutation, and MELAS/Leigh syndrome with G13513A mutation in the ND5 gene.

[9] = 10 mM lactate, 8 h vs 0 h after lactate treatment
[10] = lactate vs pyruvate treatment at 8 h

In the case of `CC(O)C(=O)O` (stereo not shown) [lactate, lactic acid], the energy metabolism disorder [1] is given as “not observed”, the “expression level of GDF15” value [2] is given as “increased” and the “expression level of IL1A” value [2] is given as “increased”. For the same molecule, the “expression level of INHBE” value [2] was “increased”, the “concentration of GDF15 in culture medium” value [3] was “increased” and the energy metabolism disorder [4] was “remarkable”. For the same molecule, the “Fold Change L-8/L-0, ADAMTS17” value [5, 9] was 3.5, the “Fold Change L-8/L-0, ADM2” value [5, 9] was 10.3 and the “Fold Change L-8/L-0, AMTN” value [5, 9] was 5.0. For the same molecule, the “Fold Change L-8/L-0, APOL6” value [5, 9] was 6.2, the “Fold Change L-8/L-0, AREG” value [5, 9] was 14.0 and the “Fold Change L-8/L-0, C1QTNF1” value [5, 9] was 2.6. The “Fold Change L-8/L-0, C12orf39” value [5, 9] was 6.3, the “Fold Change L-8/L-0, CLEC3B” value [5, 9] was 2.1 and the “Fold Change L-8/L-0, CXCL1” value [5, 9] was −3.4. For the same molecule, the “Fold Change L-8/L-0, DKK1” value [5, 9] was −2.1, the “Fold Change L-8/L-0, ECM2” value [5, 9] was 11.8 and the “Fold Change L-8/L-0, GDF15” value [5, 9] was 27.4. The “Fold Change L-8/L-0, HECW2” value [5, 9] was 2.4, the “Fold Change L-8/L-0, IGFALS” value [5, 9] was 2.3 and the “Fold Change L-8/L-0, IGFBPI” value [5, 9] was 2.3. The “Fold Change L-8/L-0, IL1A” value [5, 9] was 7.6, the “Fold Change L-8/L-0, IL23A” value [5, 9] was 4.4 and the “Fold Change L-8/L-0, INHBE” value [5, 9] was 15.0. The “Fold Change L-8/L-0, MMP3” value [5, 9] was 9.8, the “Fold Change L-8/L-0, PDGFA” value [5, 9] was 2.2 and the “Fold Change L-8/L-0, PDGFB” value [5, 9] was 2.8. The “Fold Change L-8/L-0, PDZRN3” value [5, 9] was −2.4, the “Fold Change L-8/L-0, SCG5” value [5, 9] was 5.2 and the “Fold Change L-8/L-0, SLC39A10” value [5, 9] was −2.3. For the same molecule, the “Fold Change L-8/L-0, SPOCK2” value [5, 9] was 5.1, the “Fold Change L-8/L-0, STC2” value [5, 9] was 3.4 and the “Fold Change L-8/L-0, VEGFA” value [5, 9] was 3.4. For the same molecule, the “Fold Change L-8/P-8, ADAMTS17” value [5, 10] was 2.2, the “Fold Change L-8/P-8, ADM2” value [5, 10] was 3.0 and the “Fold Change L-8/P-8, AMTN” value [5, 10] was 3.9. The “Fold Change L-8/P-8, APOL6” value [5, 10] was 3.8, the “Fold Change L-8/P-8, AREG” value [5, 10] was 2.2 and the “Fold Change L-8/P-8, C1QTNF1” value [5, 10] was 2.9. For the same molecule, the “Fold Change L-8/P-8, C12orf39” value [5, 10] was 6.7, the “Fold Change L-8/P-8, CLEC3B” value [5, 10] was 2.2 and the “Fold Change L-8/P-8, CXCL1” value [5, 10] was −2.6. The “Fold Change L-8/P-8, DKK1” value [5, 10] was −2.3, the “Fold Change L-8/P-8, ECM2” value [5, 10] was 9.0 and the “Fold Change L-8/P-8, GDF15” value [5, 10] was 14.8. For the same molecule, the “Fold Change L-8/P-8, HECW2” value [5, 10] was 2.1, the “Fold Change L-8/P-8, IGFALS” value [5, 10] was 2.5 and the “Fold Change L-8/P-8, IGFBPI” value [5, 10] was 2.1. The “Fold Change L-8/P-8, IL1A” value [5, 10] was 6.0, the “Fold Change L-8/P-8, IL23A” value [5, 10] was 2.8 and the “Fold Change L-8/P-8, INHBE” value [5, 10] was 9.4. The “Fold Change L-8/P-8, MMP3” value [5, 10] was 4.2, the “Fold Change L-8/P-8, PDGFA” value [5, 10] was 2.2 and the “Fold Change L-8/P-8, PDGFB” value [5, 10] was 3.8. The “Fold Change L-8/P-8, PDZRN3” value [5, 10] was −2.0, the “Fold Change L-8/P-8, SCG5” value [5, 10] was 3.0 and the “Fold Change L-8/P-8, SLC39A10” value [5, 10] was −2.9. For the same molecule, the “Fold Change L-8/P-8, SPOCK2” value [5, 10] was 6.6, the “Fold Change L-8/P-8, STC2” value [5, 10] was 2.6 and the “Fold Change L-8/P-8, VEGFA” value [5, 10] was 2.5. The energy metabolism disorder [6] was “remarkable” and the energy metabolism disorder [7] was “not observed”.
For `CC(=O)C(=O)O` [pyruvate, pyruvic acid], the “expression level of GDF15” value [2] was “not changed”, the “expression level of IL1A” value [2] was “not changed” and the “expression level of INHBE” value [2] was “not changed”. For the same molecule, the energy metabolism disorder [4] was “not observed” and the energy metabolism disorder [6] was “not observed”.
With `CC(=O)C(=O)[O-].[Na+]` [sodium pyruvate] the “concentration of GDF-15” value [8] was “significantly reduced”, the concentration of alanine [8] was “significantly reduced” and the concentration of lactate [8] was “significantly reduced”. The concentration of pyruvate [8] was “significantly reduced”, the side effects [8] was “no side effects were observed” and the therapeutic effect [8] was “highly effective therapy”.
